Values after ≈ are worked out from the molar mass of the structure shown. Read-outs that look alike come from different tables or passages of the source. Where a SMILES comes first, the peptide text is derived from it. Bridges are numbered along the chain shown (N, C = ends). Where no end group is shown, it is not given here.
Assays:
[1] = tested on: P. aeruginosa strain Xen05
Description: (§1) The mucoid bioluminescent P. aeruginosa strain Xen05 was purchased from Caliper life Sciences, Inc. The nonmucoid bioluminescent strain H1001 was the kind gift of Robert Hancock (University of British Columbia, Vancouver, BC, Canada). Both strains were stored as glycerol stocks at −80 °C. Recombinant hLYS and freeze‐dried Micrococcus luteus were purchased from Sigma Millipore (Burlington, MA, USA). Protegrin 1 AMP (PTG1) and HB71 peptides (> 95% purity) were obtained from Peptide 2.0. LL‐37, Melittin, and Tet009 peptides (> 95% purity) were purchased from GenScript (Piscataway, NJ, USA). Human beta defensin 3 AMP (hBD3) peptide was purchased from AnaSpec. Peptide stock solutions were stored at −20 °C. All other reagents and materials were purchased from Fisher Scientific (Waltham, MA, USA).
(§2) We analyzed the dose–response potency of each AMP against both strains via a well‐validated luminescence assay. Hundred microlitre of exponential phase cells (5 × 10^6 cells/mL) in dextrose/tris (DT) buffer (20 mM dextrose, 100 mM Tris, pH 7.4) were incubated with a 1 : 2 dilution series of each AMP in white, flat‐bottomed, 96‐well plates at 37 °C for 4 h. Culture luminescence was then quantified by imaging with a CCD camera (Bio‐Rad ChemiDoc XRS System, Hercules, CA, USA). Measurements were normalized to the no‐treatment controls on the same plate, and potency was quantified by a 3‐parameter logistic regression of luminescence versus AMP concentration, yielding EC50 values (Fig. S1). Importantly, the luminescence of these P. aeruginosa strains is known to correlate with bacterial viability. Assays were done in technical triplicate or quadruplicate and repeated at least twice.

[2] = tested on: P. aeruginosa strain H1001
Description: as §1, §2

[3] = tested on: P. aeruginosa strain Xen05; format: cell-based, Pseudomonas aeruginosa; details: for Interaction with hLYS against mucoid strain Xen05: class by FICI, checkerboard with hLYS
Description: (§3) Checkerboard, or 2‐D MIC, assays were performed analogous to the single agent dose–response studies above, except that 1 : 2 serial dilutions of hLYS were made across the rows of a 96‐well plate, and 1 : 2 serial dilutions of the AMP were made down the columns of the same plate, such that each well contained a unique concentration mixture of the two agents. Controls without treatment (growth control) and without bacteria (sterility control) were included on all plates. Assays were repeated as three independent trials (biological replicates), and results are the average of all measurements.
(§4) To quantify antibacterial interactions, fractional inhibitory concentrations (FIC) and FIC index values (FICI) were calculated as described elsewhere, though in this case using EC50 values in place of conventional growth/no growth visual observations. Briefly, the FIC for one agent is the ratio of its […]. The corresponding FIC values for the two agents in each row and column, respectively, of a checkerboard plate may be summed, and the lowest FIC sum on the plate is designated the FICI.
(§5) Based on the EC50 values of AMP monotherapies, we designed checkerboard assays wherein antibacterial interactions between hLYS and each AMP were quantified. Classical drug interactions such as synergy, additivity, or antagonism manifest characteristic trends across a given checkerboard assay plate, where FICI < 0.5 is defined as synergy, 0.5 ≤ FICI < 4 is defined as additivity, and FICI ≥ 4 is defined as antagonism. Nonclassical interactions, as observed in some of our checkerboard results, might include a concentration‐dependent switch from synergy (or additivity) to antagonism. In extreme cases, we observed inversion of the dose–response curves for specific combinations and concentration ranges of our antibacterial agents, as discussed below.

[4] = tested on: P. aeruginosa strain H1001; format: cell-based, Pseudomonas aeruginosa; details: for Interaction with hLYS against nonmucoid strain H1001: class by FICI, checkerboard with hLYS
Description: as §3, §4, §5

[5] = Fig. S1 panels A-F, M, single agent dose response, technical triplicate or quadruplicate, repeated at least twice
[6] = single agent, luminescence, DT buffer (20 mM dextrose, 100 mM Tris, pH 7.4), 5 × 10^6 cells/mL, 37 °C, 4 h, 3-parameter logistic regression, technical triplicate or quadruplicate, repeated at least twice
[7] = Fig. S1 panels G-L, N, single agent dose response, technical triplicate or quadruplicate, repeated at least twice
[8] = AMP combined with hLYS, FIC from EC50 values (50% luminescence reduction), lowest FIC sum on plate, three independent trials

Molecule | 95% confidence intervals for EC50 values, Xen05 [1, 5] | EC50 Xen05 [1, 6] | 95% confidence intervals for EC50 values, H1001 [2, 7] | EC50 H1001 [2, 6] | 95% confidence intervals for EC50 values, Xen05 ([1]; strain Xen05, 4 h) | EC50 Xen05 ([1]; strain Xen05, 4 h, pH 7.4) | 95% confidence intervals for EC50 values, H1001 ([2]; strain H1001, 4 h) | EC50 H1001 ([2]; strain H1001, 4 h, pH 7.4) | Interaction with hLYS against mucoid strain Xen05 [3] | Interaction with hLYS against nonmucoid strain H1001 [4] | FICI Xen05 [3, 8] | FICI H1001 [4, 8]
human lysozyme [hLYS] | 800 to 1200 µg/mL | 990 µg/mL | 700 to 1100 µg/mL | 890 µg/mL | – | – | – | – | – | – | – | –
CC(C)C[C@H](NC(=O)[C@H](CCCNC(=N)N)NC(=O)CNC(=O)CNC(=O)[C@@H](N)CCCNC(=N)N)C(=O)N[C@H]1CSSC[C@@H](C(=O)N[C@H](C(=O)NCC(=O)N[C@@H](CCCNC(=N)N)C(=O)O)C(C)C)NC(=O)[C@H](C(C)C)NC(=O)[C@@H]2CSSC[C@H](NC(=O)[C@H](Cc3ccc(O)cc3)NC1=O)C(=O)N[C@@H](CCCNC(=N)N)C(=O)N[C@@H](CCCNC(=N)N)C(=O)N[C@@H](CCCNC(=N)N)C(=O)N[C@@H](Cc1ccccc1)C(=O)N2 [PTG‐1] (H-RGGRLCYCRRRFCVCVGR-OH; disulfide 6-15, 8-13 (inferred); N-terminus and C-terminus assumed) | – | – | – | – | 1.1 to 1.2 µg/mL | 1.1 µg/mL (≈ 0.51 µM) | 1.6 to 1.8 µg/mL | 1.7 µg/mL (≈ 0.788 µM) | synergy (FICI < 0.5 is defined as synergy) | synergy (FICI < 0.5 is defined as synergy) | – | –
GIINTLQKYYCRVRGGRCAVLSCLPKEEQIGKCSTRGRKCCRRKK (disulfide 11-40, 18-33, 23-41 (inferred)) [hBD3] | – | – | – | – | 5.5 to 6.5 µg/mL | 6.0 µg/mL | 6.9 to 7.1 µg/mL | 7.0 µg/mL | additivity (0.5 ≤ FICI < 4 is defined as additivity) | synergy (FICI < 0.5 is defined as synergy) | – | –
RRWKIVVIRWRR [Tet009] | 1.4 to 1.5 µg/mL | 1.5 µg/mL | 2.5 to 2.9 µg/mL | 2.7 µg/mL | – | – | – | – | – | – | – | –
CC[C@H](C)[C@H](NC(=O)[C@H](CCCCN)NC(=O)[C@H](CCC(=O)O)NC(=O)[C@H](CCCCN)NC(=O)[C@H](CO)NC(=O)[C@H](CCCCN)NC(=O)[C@H](CCCNC(=N)N)NC(=O)[C@H](Cc1ccccc1)NC(=O)[C@H](Cc1ccccc1)NC(=O)[C@H](CC(=O)O)NC(=O)CNC(=O)[C@H](CC(C)C)NC(=O)[C@@H](N)CC(C)C)C(=O)NCC(=O)N[C@@H](CCCCN)C(=O)N[C@@H](CCC(=O)O)C(=O)N[C@@H](Cc1ccccc1)C(=O)N[C@@H](CCCCN)C(=O)N[C@@H](CCCNC(=N)N)C(=O)N[C@H](C(=O)N[C@H](C(=O)N[C@@H](CCC(N)=O)C(=O)N[C@@H](CCCNC(=N)N)C(=O)N[C@H](C(=O)N[C@@H](CCCCN)C(=O)N[C@@H](CC(=O)O)C(=O)N[C@@H](Cc1ccccc1)C(=O)N[C@@H](CC(C)C)C(=O)N[C@@H](CCCNC(=N)N)C(=O)N[C@@H](CC(N)=O)C(=O)N[C@@H](CC(C)C)C(=O)N[C@H](C(=O)N1CCC[C@H]1C(=O)N[C@@H](CCCNC(=N)N)C(=O)N[C@H](C(=O)N[C@@H](CCC(=O)O)C(=O)N[C@@H](CO)C(=O)O)[C@@H](C)O)C(C)C)[C@@H](C)CC)C(C)C)[C@@H](C)CC [LL37] | 4.8 to 5.1 µg/mL | 5.0 µg/mL (≈ 1.11 µM) | 5.7 to 6.6 µg/mL | 6.1 µg/mL (≈ 1.36 µM) | – | – | – | – | – | – | 0.5 ± 0.2 | 0.5 ± 0.2
FAKKLAKKLKKLAKKLAK [HB71] | 1.4 to 1.8 µg/mL | 1.6 µg/mL | – | 2.6 µg/mL | – | – | – | – | – | – | – | –

From PMC7931236, “Nonclassical antagonism between human lysozyme and AMPs against Pseudomonas aeruginosa” (FEBS Open Bio, 2021)
